Like-named read-outs stand apart in the source and are kept apart here.
Assays:
[1] = biological target: T1, Recombinant human P450 27A1 (Homo sapiens, UniProt Q02318); assay: P450 27A1 enzyme incubation: disappearance of substrate, coprostanol internal standard; assay type: biochemical
T1 construct: made in house; host or cells: E. coli
Text: (§1) Recombinant human P450 27A1, recombinant bovine adrenodoxin (Adx), and recombinant bovine adrenodoxin reductase (Adr) were expressed and purified as described previously (7). P450 27A1 with a heme content of 17.6 nmol/mg protein and showing a single band upon silver-stained SDS-polyacrylamide gel electrophoresis, and Adr and Adx with the spectral purity indexes of 7.5 (A278/A450) and 0.95 (A414/A276), respectively, were used for enzymatic assays. Adr and Adx are considered to be pure with the spectral purity indexes beginning from 7.5 for Adr and 0.86 for Adx (8).
(§2) P450 27A1 activities using cholesterol, desmosterol, zymosterol, lanosterol, or […] as the substrate were assayed in 40 mM phosphate buffer, pH 7.4. Stock solutions (10 mM) of cholesterol, desmosterol, zymosterol, and […] were prepared using 45% aqueous solution of 2-hydroxypropyl-β-cyclodextrin. Reaction mixtures (1 ml) contained 0.065 nmol of P450 27A1, 0.33 nmol of Adr, 1.3 nmol of Adx, and 25 nmol of substrate, Lanosterol was dissolved in methyl-β-cyclodextrin (Sigma, St. Louis, Mo.) and the reaction mixture contained 25 nmol substrate, 0.3 nmol enzyme, 1.5 nmol Adr and 6.5 nmol Adx. Enzymatic assays, initiated by addition of 1 μmol of NADPH, were carried out at 37° C. for different time intervals, and were terminated by adding 1 ml of either CH2Cl2 or CH2Cl2 that contained coprostanol. After extraction, the steroid were taken to dryness. In some studies deuterated 27-hydroxycholesterol (9) was used as an internal standard.
(§3) For zymosterol and desmosterol, the rate of diol formation was determined at 2.5, 5.0, and 10 min by removing aliquots and adding deuterated 27-hydroxycholesterol as an internal standard. The m/z 454 area was then compared with the m/z=462 area at each time interval. Because authentic standards are not available for constructing standard curves, it was assumed that the area/mass ratios for deuterated 27-hydroxycholesterol, zymosterol and desmosterol were equal. A second approach was to quantify the rate of disappearance of substrate using coprostanol added at the end of the incubation period. In all studies a parallel incubation with the omission of adrenodoxin reductase served as a control.
(§4) The trimethylsilyl ethers were prepared using MSTFA, (Pierce, Rockford, Ill.). Methyl esters were prepared using freshly distilled diazomethane. GLC-MS analyses were done on a Shimidzu GLC 17A instrument attached to a Model 5000 mass detector. Samples were injected in the split-mode onto a ZB-1701, 30 m×0.25 mm×0.15 μm capillary column (Phenomenex, Torrance, Calif.) and temperature programming at 1° C. beginning at 240° C.
TABLE 3 indicates the percent of zymosterol, desmosterol, and lanosterol that was metabolized compared with that of cholesterol and 7-dehydrocholesterol using coprostanol (m/z=370) as an internal standard and (−) adrenodoxin reductase as a control.

[2] = biological target: T1, Recombinant human P450 27A1; assay: P450 27A1 enzyme incubation: rate of 27-diol formation (GLC-MS); assay type: biochemical; details: for Synthesis rate of the 27-diol metabolite: 25 nmol substrate, 37° C.; for Total 27-diol metabolite: total over 10 min; for Substrate for the enzyme CYP 27A1: human enzyme expressed in E. Coli
Text: as §1, §2, §3, §4

[3] = biological target: T2, HMG CoA reductase (Homo sapiens, UniProt P04035); assay: Ubiquitination of reductase in a permeabilized cell system; assay type: cell-based; details: permeabilized cells; data not shown
T2 sequence (P04035 1-888): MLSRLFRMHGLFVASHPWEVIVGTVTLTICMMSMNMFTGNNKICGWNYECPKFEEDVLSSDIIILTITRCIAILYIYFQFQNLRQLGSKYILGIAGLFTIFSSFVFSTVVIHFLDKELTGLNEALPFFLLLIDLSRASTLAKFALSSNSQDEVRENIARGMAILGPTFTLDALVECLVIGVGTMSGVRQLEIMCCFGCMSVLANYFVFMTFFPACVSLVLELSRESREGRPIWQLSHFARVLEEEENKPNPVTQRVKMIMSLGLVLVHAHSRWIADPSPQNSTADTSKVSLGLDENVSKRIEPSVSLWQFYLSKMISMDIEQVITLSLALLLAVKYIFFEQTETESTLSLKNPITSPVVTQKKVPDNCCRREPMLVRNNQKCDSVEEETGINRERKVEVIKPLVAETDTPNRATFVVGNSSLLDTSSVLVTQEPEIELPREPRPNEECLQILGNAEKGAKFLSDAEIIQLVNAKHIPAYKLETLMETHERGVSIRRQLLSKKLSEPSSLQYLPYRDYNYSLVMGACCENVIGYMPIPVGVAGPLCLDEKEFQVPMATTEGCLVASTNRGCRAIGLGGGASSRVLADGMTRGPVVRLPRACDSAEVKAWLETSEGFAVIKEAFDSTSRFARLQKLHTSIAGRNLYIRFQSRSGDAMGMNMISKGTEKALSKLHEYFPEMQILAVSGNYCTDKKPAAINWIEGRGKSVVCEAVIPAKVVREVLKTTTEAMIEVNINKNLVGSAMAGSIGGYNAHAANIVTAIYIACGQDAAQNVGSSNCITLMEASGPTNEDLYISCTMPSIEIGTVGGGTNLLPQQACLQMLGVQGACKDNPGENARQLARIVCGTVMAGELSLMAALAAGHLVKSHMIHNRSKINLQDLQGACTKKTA
Procedure: It was determined whether intermediates in cholesterol synthesis promote ubiquitination of reductase in a permeabilized cell system. […] The methyl and side chain hydroxyl groups of 27-hydroxylanosterol appear to act synergistically in promoting reductase ubiquitination.

[4] = system: human retinal pigment epithelial cells (ARPE19); assay type: cell-based
Text: We undertook to determine the effect of 27-hydroxylation of 7-ketocholesterol on the cytotoxic effect of 7-ketocholesterol. To test the general hypothesis that 27-hydroxylation of steroids markedly alters their biologic activity, the 27-hydroxy derivative of 7-ketocholesterol was synthesized from 27-hydrocholesterol using modifications of a previously published method (11). Its biologic effects on human retinal pigment epithelial cells (ARPE19) was compared to that of 7-ketocholesterol.
By contrast, retinal pigment epithelial cells maintained in the presence of 27-hydroxy-7-ketocholesterol had only a 10% reduction in viability compared to control.

[5] = biological target: T3, LXRα (Homo sapiens, UniProt Q13133); details: cited from earlier work
T3 sequence (Q13133 1-447): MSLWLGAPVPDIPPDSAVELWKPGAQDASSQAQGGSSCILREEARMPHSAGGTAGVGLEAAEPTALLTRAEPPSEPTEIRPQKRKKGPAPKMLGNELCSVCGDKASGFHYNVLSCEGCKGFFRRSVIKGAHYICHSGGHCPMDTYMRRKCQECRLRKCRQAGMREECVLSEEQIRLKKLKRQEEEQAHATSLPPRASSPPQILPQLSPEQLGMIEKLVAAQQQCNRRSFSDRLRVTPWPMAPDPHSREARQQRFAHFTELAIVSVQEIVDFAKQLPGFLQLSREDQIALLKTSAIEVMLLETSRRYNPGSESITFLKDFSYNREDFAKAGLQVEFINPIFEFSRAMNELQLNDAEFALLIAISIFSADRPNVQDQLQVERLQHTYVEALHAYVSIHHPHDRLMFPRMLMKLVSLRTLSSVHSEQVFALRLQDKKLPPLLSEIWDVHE

[6] = biological target: T4, LXRβ (Homo sapiens, UniProt P55055); details: cited from earlier work
T4 sequence (P55055 1-460): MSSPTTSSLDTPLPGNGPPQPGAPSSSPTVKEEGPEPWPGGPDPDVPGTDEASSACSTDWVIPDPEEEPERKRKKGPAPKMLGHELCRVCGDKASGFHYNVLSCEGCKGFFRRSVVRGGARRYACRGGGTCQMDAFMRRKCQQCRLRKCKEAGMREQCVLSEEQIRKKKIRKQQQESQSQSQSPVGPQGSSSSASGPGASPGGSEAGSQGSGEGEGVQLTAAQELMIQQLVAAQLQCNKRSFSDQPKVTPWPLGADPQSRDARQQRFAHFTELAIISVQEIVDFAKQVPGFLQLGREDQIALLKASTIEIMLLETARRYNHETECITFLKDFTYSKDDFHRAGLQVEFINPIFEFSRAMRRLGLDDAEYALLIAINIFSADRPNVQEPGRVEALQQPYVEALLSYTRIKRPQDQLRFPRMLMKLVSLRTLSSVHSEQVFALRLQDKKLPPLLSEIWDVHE

[7] = Adrenodoxin reductase (−) control incubation, 20 min
[8] = Adrenodoxin reductase +, 20 min
[9] = disappearance of substrate at 20 min versus incubation without adrenodoxin reductase

T1 sequence (Q02318 34-531): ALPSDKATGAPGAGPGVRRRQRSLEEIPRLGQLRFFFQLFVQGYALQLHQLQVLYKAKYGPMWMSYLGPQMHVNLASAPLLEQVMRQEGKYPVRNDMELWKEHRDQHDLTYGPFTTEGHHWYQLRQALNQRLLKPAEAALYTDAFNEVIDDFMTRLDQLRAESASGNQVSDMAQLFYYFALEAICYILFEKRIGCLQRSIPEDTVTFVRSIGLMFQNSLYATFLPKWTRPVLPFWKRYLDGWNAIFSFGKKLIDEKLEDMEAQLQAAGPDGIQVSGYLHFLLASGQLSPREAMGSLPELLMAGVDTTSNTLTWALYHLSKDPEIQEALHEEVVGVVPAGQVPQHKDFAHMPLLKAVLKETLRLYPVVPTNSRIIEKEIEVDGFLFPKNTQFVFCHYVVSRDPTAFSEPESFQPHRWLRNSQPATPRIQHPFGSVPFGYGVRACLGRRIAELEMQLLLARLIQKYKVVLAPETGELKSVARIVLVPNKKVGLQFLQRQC

Row | Compound | Synthesis rate of the 27-diol metabolite ([2]; 0-2.5 min) | Synthesis rate of the 27-diol metabolite ([2]; 2.5-5.0 min) | Synthesis rate of the 27-diol metabolite ([2]; 5.0-10 min) | Total 27-diol metabolite [2] | Stimulation of ubiquitination of reductase [3] | also measured
1 | CC(C)CCC[C@@H](C)[C@H]1CC[C@H]2C3=CC=C4C[C@@H](O)CC[C@]4(C)[C@H]3CC[C@]12C [7-Dehydrocholesterol] | 24 ng/min | 54 ng/min | 11 ng/min | 107 ng/10 min |  | Sterol/int std ratio [1, 7]: 0.95; Sterol/int std ratio [1, 8]: 0.65; Percent metabolized [1, 9]: 32%
2 | CC(C)CCC[C@@H](C)[C@H]1CC[C@H]2[C@@H]3CC=C4C[C@@H](O)CC[C@]4(C)[C@H]3CC[C@]12C [Cholesterol] | 80 ng/min | 75 ng/min | 53 ng/min | 534 ng/10 min | not | Percent metabolized ([1]; human, 20 min, 25 µM, pH 7.4): 22%
3 | CC(=CCCC(C)C1CCC2(C)C3=C(CCC12C)C1(C)CCC(O)C(C)(C)C1CC3)CO (centres unmarked) [27-hydroxylanosterol] |  |  |  |  | strongly stimulated reductase ubiquitination | Concentration giving approximately equivalent levels of reductase ubiquitination as 25 μM lanosterol [3]: 2.5 µM
4 | CC(C)CCC[C@@H](C)[C@H]1CC[C@H]2[C@@H]3C(=O)C=C4C[C@@H](O)CC[C@]4(C)[C@H]3CC[C@]12C [7-ketocholesterol] |  |  |  |  |  | Viability of retinal pigment epithelial cells ([4]; 25 μmolar): 68%; Viability of retinal pigment epithelial cells ([4]; 50 μmolar): 20%
5 | CC(C)=CCC[C@@H](C)[C@H]1CC[C@H]2C3=C(CC[C@]12C)[C@@]1(C)CC[C@H](O)C[C@@H]1CC3 [Zymosterol] | 9 ng/min | 14 ng/min | 10 ng/min | 97 ng/10 min |  | Substrate for the enzyme CYP 27A1 [2]: substrates for the enzyme
6 | CC(C)=CCC[C@@H](C)[C@H]1CC[C@H]2[C@@H]3CC=C4C[C@@H](O)CC[C@]4(C)[C@H]3CC[C@]12C [Desmosterol] | 3 ng/min | 8 ng/min | 9 ng/min | 85 ng/10 min |  | Sterol/int std ratio [1, 7]: 0.12; Sterol/int std ratio [1, 8]: 0.09; Percent metabolized [1, 9]: 25%; Substrate for the enzyme CYP 27A1 [2]: substrates for the enzyme
7 | C[C@H](CCCC(C)(C)O)[C@H]1CC[C@H]2[C@@H]3C(=O)C=C4C[C@@H](O)CC[C@]4(C)[C@H]3CC[C@]12C [7-keto-25-hydroxycholesterol] |  |  |  |  | stimulated ubiquitination of reductase | 
8 | CC(CO)CCC[C@@H](C)[C@H]1CC[C@H]2C3=CC=C4C[C@@H](O)CC[C@]4(C)[C@H]3CC[C@]12C (some centres unmarked) [27-hydroxy-7-dehydrocholesterol] |  |  |  |  |  | Expression of the nuclear receptor LXRα [5]: specifically upregulate
9 | C[C@H](CCCC(C)(C)O)[C@H]1CC[C@H]2[C@@H]3CC=C4C[C@@H](O)CC[C@]4(C)[C@H]3CC[C@]12C [25-hydroxycholesterol] |  |  |  |  | stimulated ubiquitination of reductase | 
10 | CC(CO)CCC[C@@H](C)[C@H]1CC[C@H]2[C@@H]3CC=C4C[C@@H](O)CC[C@]4(C)[C@H]3CC[C@]12C (some centres unmarked) [27-hydroxycholesterol] |  |  |  |  | stimulated ubiquitination of reductase | Expression of the nuclear receptor LXRα [5]: upregulates; Expression of the nuclear receptor LXRβ [6]: upregulates
11 | CC(C)=CCC[C@@H](C)[C@H]1CC[C@@]2(C)C3=C(CC[C@]12C)[C@@]1(C)CC[C@H](O)C(C)(C)[C@@H]1CC3 [Lanosterol] |  |  |  |  | potently stimulate ubiquitination of reductase | Substrate for the enzyme CYP 27A1 [2]: substrates for the enzyme

— patent US8741812B2, “Class of sterol ligands and their uses in regulation of cholesterol and gene expression” (New York University, priority 2004, dated 2014)
